Data on four molecules can be found in US20140351961A1, “COMPOSITIONS AND METHODS FOR TREATMENT OF METASTATIC CANCER” (priority 2011, published 2014).

Residues, ends and D or L forms follow the SMILES beside them. *: point of attachment. Cbz = O=C(OCc1ccccc1)*

The test system of one data set is IFN-γ. The data set is described as follows: In vitro cross-presentation assay (IFN-γ release by B3Z cells). The class given is cell-based, mouse. To be noted: Hsp25-siRNA- and control-siRNA-treated BMDC; 10 μM.
The subject of another data set is AsPC1 cells. In words: MTS cytotoxicity assay, AsPC1 cells pre-treated with control or CH101. It counts as cell-based. As to conditions: Homo sapiens, AsPC1, highly metastatic pancreatic cell, 48 h control or CH101 pre-treatment, then 72 h drug. The procedure: FIG. 8A-B. Combining CH101 with oxaliplatm synergistieally functions to reduce the IC50 in the highly agreesive, highly metastatic pancreatic cell, AsPC1, AsPC1 cells (10^6) were plated in 96-well plates and either pre-treated with control (top panel) or CH101 (bottom panel) for 48 hrs in a 37 degree C incubator. AsPC1 cells were then treated with various doses of oxaliplatm (A) or irlootecan (B) and further incubated for 72 h. Cytotoxicity was measured using the classical MTS assay.
(Tetrazolium dyes change colour on reduction, which living cells bring about.)

Another data set relates to Panc-1 cells. The data set is described as follows: MTS cytotoxicity assay, Panc-1 cells pre-treated with control or CH101. The class given is cell-based. As to conditions: Panc-1, weakly metastatic pancreatic cell, 48 h control or CH101 pre-treatment, then 72 h drug. The procedure: FIG. 7. Combining CH101 with oxaliplatin synergistically functions to reduce the IC50 in the weakly metastatic pancreatic cell Panc-1. Panc-1 cells (10^6) were plated in 96-well plates and either pre-treated with control (top panel) or CH101 (bottom panel) for 48 h in a 37 degree C incubator. Panc-1 cells were then treated with various doses of oxaliplatm and further incubated for 72 hours. Cytotoxicity was measured using the classical MTS assay.

For data set [1], the system named is MDA-MB-231, AsPC1, MCF7, Panc-1. The data set is described as follows: CH101 against highly metastatic versus non- or weakly metastatic cancers. The class given is cell-based. As to conditions: MDA-MB-231 and AsPC1 versus MCF7 and Panc-1.

Turning to `CC(C)C[C@@H](C=O)NC(=O)[C@H](CC(C)C)NC(=O)[C@H](CC(C)C)NC(=O)OCc1ccccc1` [MG-132] (Cbz-Leu-Leu-Leu-aldehyde), in the data set with IFN-γ, the “IFN-γ released by B3Z cells after proteasome inhibitor pre-treatment” value is “significantly reduced the concentration of released IFN-γ”. For the molecule `CCc1c2c(nc3ccc(OC(=O)N4CCC(N5CCCCC5)CC4)cc13)-c1cc3c(c(=O)n1C2)COC(=O)[C@]3(O)CC` [irinotecan], the IC50 – broadly, the point on the concentration scale where inhibition reaches its midpoint – with AsPC1 cells was determined as 36.8 µM. On to `O=C1[O][Pt]2([NH][C@@H]3CCCC[C@H]3[NH]2)[O]C1=O` [oxaliplatin], for which the IC50 with Panc-1 cells was determined as 23 µM.

B1: CH101: cocktail of two dsRNA molecules, dsRNA SEQ ID NO:8/SEQ ID NO:9 and dsRNA SEQ ID NO:10/SEQ ID NO:11, blocking Hsp27 (nucleic acid)
chain 1: AAGGACGAGCATGGCTACATC
chain 2: GATGTAGCCATGCTCGTCCTT
chain 3: CACAGCCGCCTCTTCGATCAA
chain 4: TTGATCGAAGAGGCGGCTGTG
modifications: two duplexes cocktail, further chemistry not given here
For the molecule B1, in data set [1], the “relative effectiveness by metastatic type of cancer” value is listed as “more effective against highly metastatic cancers”.
